Reference: patent US10174045B2, “Benzopyrylium compounds” (Pierce Biotechnology, Inc., priority 2012, dated 2019)
Marks after values point to notes of the source that are not given here.

Tests used:
[1] = tested on: NCoR2 in U2OS cells; assay: Immunofluorescence cell based assay, detection of NCoR2 with dye-GAM; settings: for quenching with molar excess: NCoR2 experiment
Method: (§1) In the indicated experiments, the inventive compounds and commercial dye were evaluated for immunofluorescence in a cell based assay using the following protocol. Frozen U20S cell plates which were stored at −80° C. were thawed for 30 minutes at 50° C. Storage buffer (PBS) was removed and cells were permeabilized for 15 minutes with 0.1% Triton-X100 in 1×PBS buffer (100 μl/well). The cell plate was blocked for 60 minutes in 2% BSA/PBS-0.1% Triton-X100. Primary antibody, either mouse anti-ezrin (1.3 μg/ml) or mouse anti-NCoR2 (20 μg/ml), diluted in 2% BSA/PBS-0.1% Triton-X100 was added to the plate and incubated for one hour at room temperature. Control wells contained only 2% BSA/PBS-0.1% Triton-X100 blocker. After incubation, the antibody solution was removed from the plate and the plate was washed three times with 100 μl/well of PBS-0.5% Tween-20 and one time with 100 μl/well PBS. GAM secondary antibodies labeled with various molar excess of the inventive or commercial compound were diluted to 4 μg/ml in PBS and incubated for one hour at room temperature. The plates were washed three times with 100 μl/well of PBST and once with 100 μl/well PBS, and Hoechst (diluted to 0.1 μg/ml in PBS) was added to each well (100 μl/well). The plates were scanned on ArrayScan Plate Reader.
NCoR2 was detected in U2OS cells with V03-07005-GAM, V08-16072-GAM, V13-06190-GAM, V17-03019-GAM, DyLight 680-GAM, and Alexa Fluor 680-GAM at a 2.5×, 5×, 10×, and 15× molar excesses. Quantitative analysis of the data, expressed as Mean Total Intensity, which is the average total intensity of all pixels within a defined area or defined primary object such as a nucleus, is shown below, where “Neg” indicates the negative control condition.

[2] = Excitation/emission properties of dye NHS esters; format: physicochemical
Excerpt: The following properties of V03-07005, V08-16072, V13-06190, and V17-03019 were compared with commercially available dyes. DyLight 680 NHS is a non-pegylated benzopyrylium dye and the ‘V’ dyes are pegylated dyes described above.

[3] = tested on: U2OS cells; assay: Immunofluorescence cell based assays, overall summary; settings: summary of all immunofluorescence experiments
Method: (§2) In the indicated experiments, the inventive compounds and commercial dye were evaluated for immunofluorescence in a cell based assay using the following protocol. Frozen U20S cell plates stored at −80° C. were thawed for 30 minutes at 50° C. Storage buffer (PBS) was removed and the cells were permeabilized for 15 minutes with 0.1% Triton-X100 in 1×PBS buffer (100 μl/well). The cell plate was blocked for 60 minutes in 2% BSA/PBS-0.1% Triton-X100. Primary antibody, either rabbit anti-lamin B1 or rabbit anti-HDAC2 (10 μg/ml), diluted in 2% BSA/PBS-0.1% Triton-X100 was added to the plate and incubated for one hour at room temperature. Control wells contained only 2% BSA/PBS-0.1% Triton-X100 blocker. After incubation, antibody solution was removed from the plate and the plate was washed three times with 100 μl/well PBS-0.5% Tween-20 and one time with 100 μl/well PBS. GAR secondary antibodies labeled with various molar excess of the inventive or commercial compound were diluted to 4 μg/ml in PBS and incubated for one hour at room temperature. Plates were washed three times with 100 μl/well PBST and once with 100 μl/well PBS, and Hoechst (diluted to 0.1 μg/ml in PBS) was added to each well (100 μl/well). The plates were scanned on ArrayScan Plate Reader.
In the indicated experiments, the inventive compounds and commercial dye were evaluated for immunofluorescence in a cell based assay using the following protocol. Frozen U20S cell plates which were stored at −80° C. were thawed for 30 minutes at 50° C. Storage buffer (PBS) was removed and cells were permeabilized for 15 minutes with 0.1% Triton-X100 in 1×PBS buffer (100 μl/well). The cell plate was blocked for 60 minutes in 2% BSA/PBS-0.1% Triton-X100. Primary antibody, either mouse anti-ezrin (1.3 μg/ml) or mouse anti-NCoR2 (20 μg/ml), diluted in 2% BSA/PBS-0.1% Triton-X100 was added to the plate and incubated for one hour at room temperature. Control wells contained only 2% BSA/PBS-0.1% Triton-X100 blocker. […] The plates were scanned on ArrayScan Plate Reader.

[4] = tested on: HDAC2 in U2OS cells; assay: Immunofluorescence cell based assay, nuclear detection of HDAC2 with dye-GAR; settings: for quenching with molar excess: HDAC2 experiment
Method: as §2
Quantitative analysis of the data of FIGS. 14-16, expressed as Mean Total Intensity, which is the average total intensity of all pixels within a defined area or defined primary object such as a nucleus, is shown below; “Neg” indicates negative control.

[5] = tested on: lamin B1 in U2OS cells; assay: Immunofluorescence cell based assay, detection of lamin B1 with dye-GAR; settings: for quenching with molar excess: lamin B1 experiment
Method: as §2
Quantitative analysis of the data of FIGS. 11-13, expressed as Mean Total Intensity, which is the average total intensity of all pixels within a defined area or defined primary object such as a nucleus, is shown below; “Neg” indicates negative control.

[6] = tested on: ezrin in U2OS cells; assay: Immunofluorescence cell based assay, detection of ezrin with dye-GAM; settings: 2.5×-15× molar excess
Method: as §1, with “The plates were washed three times with 100 μl/well of PBST and once with 100 μl/well PBS, and Hoechst (diluted to 0.1 μg/ml in PBS) was added to each well (100 μl/well).” left out
Quantitative analysis of the data of FIGS. 17-19, expressed as Mean Total Intensity, which is the average total intensity of all pixels within a defined area or defined primary object such as a nucleus, is shown below; “Neg” indicates negative control.

[7] = tested on: mouse IgG immunoglobulin; assay: Functional plate assay of dye-GAM conjugates, LiCor Odyssey 700 channel; format: binding; settings: GAM conjugated with 5× molar excess, FIG. 6-7
Method: Performance of dye-GAM and dye-GAR conjugates was evaluated in a functional assay. Wells of a 96-well black clear-bottom plate were coated with target protein mouse or rabbit IgG immunoglobulin. One hundred μl mouse or rabbit IgG, at 10 μg/ml, was applied to the corresponding wells in row 1. The target proteins were serially diluted 1:1 from the wells in rows 2 to 7 using 100 μl PBS. One hundred μl of samples from the wells in row 7 were discarded. One hundred μl PBS was added to the wells in row 8. Plates were incubated overnight at 4° C. and then blocked 2×200 μl with Thermo Scientific SuperBlock® Blocking Buffer. The coated plates were washed 2×200 μl with PBS-Tween and 1×200 μl with PBS. Based on the calculated concentrations, conjugates were diluted 1:250 (of 1 mg/ml) in PBS, added to the corresponding plates (100 μl/well) and then incubated for one hour in the dark. The plates were washed with 2×200 μl with PBS-Tween and 1×200 μl with PBS and filled with PBS buffer (100 μl/well) prior to scanning the black clear-bottom plates on LiCor Odyssey at 700 channel, to detect fluorescence intensity.
As shown in FIGS. 1-10, RFU and/or signal to background ratio (S/B) of the dyes conjugated to the indicated antibody were compared at various concentrations, using the indicated conjugation conditions.

Ex ([2]; EtOH)	Ex ([2]; PBS)	Em [2]	Structure (SMILES)	other results
690 (EtOH) nm	675 (PBS)* nm	708 nm	COCCOCCOCCOCCN(CCOCCOCCOCCOC)c1ccc2c(C(C)(C)C)cc(/C=C/C=C3/N(CCCS(=O)(=O)[O-])c4ccc(S(=O)(=O)[O-])cc4C3(C)CCCC(=O)ON3C(=O)CCC3=O)[o+]c2c1.[Na+] (stereo not shown) [V03-07005-NHS]	–
691 (EtOH) nm	675 (PBS)* nm	712 nm	COCCOCCOCCOCCN(CCCS(=O)(=O)[O-])c1ccc2c(C(C)(C)C)cc(/C=C/C=C3/N(CCCS(=O)(=O)[O-])c4ccc(S(=O)(=O)[O-])cc4C3(C)CCCC(=O)ON3C(=O)CCC3=O)[o+]c2c1.[Na+].[Na+] (stereo not shown) [V17-03019-NHS]	–
691 (EtOH) nm	679 (PBS)* nm	712 nm	COCCOCCOCCOCCN(CCCS(=O)(=O)[O-])c1ccc2c(C(C)(C)C)cc(/C=C/C=C3/N(CCOCCOCCOCCOCCC(=O)ON4C(=O)CCC4=O)c4ccc(S(=O)(=O)[O-])cc4C3(C)CCCS(=O)(=O)[O-])[o+]c2c1.[Na+].[Na+] (stereo not shown) [V13-06190-NHS]	–
691 (EtOH) nm	679 (PBS)* nm	712 nm	COCCOCCOCCOCCN(CCCS(=O)(=O)[O-])c1ccc2c(C(C)(C)C)cc(/C=C/C=C3/N(CCCCCC(=O)ON4C(=O)CCC4=O)c4ccc(S(=O)(=O)[O-])cc4C3(C)CCCS(=O)(=O)[O-])[o+]c2c1.[Na+].[Na+] (stereo not shown) [V08-16072-NHS]	–

More lines, now with the values behind:

Structure (SMILES)	Ex ([2]; EtOH)	Ex ([2]; PBS)	Em [2]	other results
COCCOCCOCCOCCN(CCCS(=O)(=O)[O-])c1ccc2c(C(C)(C)C)cc(/C=C/C=C3/N(CCOCCOCCOCCOCCC(=O)O)c4ccc(S(=O)(=O)[O-])cc4C3(C)CCCS(=O)(=O)[O-])[o+]c2c1.[Na+].[Na+] (stereo not shown) [Compound V13-06190, (E)-2-((E)-3-(4-tert-butyl-7-((3-sulfonatopropyl)(2,5,8,11-tetraoxatridecan-13-yl)amino)chromenylium-2-yl)allylidene)-1-(14-carboxy-3,6,9,12-tetraoxatetradecyl)-3-methyl-3-(3-sulfonatopropyl)indoline-5-sulfonate]	690 nm	about 675 nm	–	quenching with molar excess [1]: gradually quenched from the 2.5× molar excess condition; quenching with molar excess [3]: gradual quenching from 2.5× molar excess condition; quenching with molar excess [4]: gradually quenching from 2.5× molar excess condition; quenching with molar excess [5]: gradually quenching from 2.5× molar excess condition
COCCOCCOCCOCCN(CCOCCOCCOCCOC)c1ccc2c(C(C)(C)C)cc(/C=C/C=C3/N(CCCS(=O)(=O)[O-])c4ccc(S(=O)(=O)[O-])cc4C3(C)CCCC(=O)O)[o+]c2c1.[Na+] (stereo not shown) [Compound V03-07005, (E)-2-((E)-3-(4-tert-butyl-7-(di2,5,8,11-tetraoxatridecan-13-ylamino)chromenylium-2-yl)allylidene)-3-(3-carboxypropyl)-3-methyl-1-(3-sulfonatopropyl)indoline-5-sulfonate]	690 nm	about 675 nm	–	staining / S/B performance, in words [6]: best performing benzopyrylium dye; staining / S/B performance, in words ([1]; NCoR2, 2.5×-15× molar excess): best performing benzopyrylium dye; binding intensity (RFU), in words [7]: performed best of the benzopyrylium dyes; staining performance, in words [3]: best performing benzopyrylium dye; staining / S/B performance, in words ([4]; HDAC2, 2.5×-15× molar excess): best performing benzopyrylium dye; staining / S/B performance, in words ([5]; lamin B1, 2.5×-15× molar excess): best performing benzopyrylium dye
COCCOCCOCCOCCN(CCCS(=O)(=O)[O-])c1ccc2c(C(C)(C)C)cc(/C=C/C=C3/N(CCCCCC(=O)O)c4ccc(S(=O)(=O)[O-])cc4C3(C)CCCS(=O)(=O)[O-])[o+]c2c1.[Na+].[Na+] (stereo not shown) [Compound V08-16072, (E)-2-((E)-3-(4-tert-butyl-7-((3-sulfonatopropyl)(2,5,8,11-tetraoxatridecan-13-yl)amino)chromenylium-2-yl)allylidene)-1-(5-carboxypentyl)-3-methyl-3-(3-sulfonatopropyl)indoline-5-sulfonate]	690 nm	about 675 nm	–	quenching with molar excess [1]: gradually quenched from the 2.5× molar excess condition; quenching with molar excess [3]: gradual quenching from 2.5× molar excess condition; quenching with molar excess [4]: gradually quenching from 2.5× molar excess condition; quenching with molar excess [5]: gradually quenching from 2.5× molar excess condition
COCCOCCOCCOCCN(CCCS(=O)(=O)[O-])c1ccc2c(C(C)(C)C)cc(/C=C/C=C3/N(CCCS(=O)(=O)[O-])c4ccc(S(=O)(=O)[O-])cc4C3(C)CCCC(=O)O)[o+]c2c1.[Na+].[Na+] (stereo not shown) [Compound V17-03019, (E)-2-((E)-3-(4-tert-butyl-7-((3-sulfonatopropyl)(2,5,8,11-tetraoxatridecan-13-yl)amino)chromenylium-2-yl)allylidene)-3-(3-carboxypropyl)-3-methyl-1-(3-sulfonatopropyl)indoline-5-sulfonate]	690 nm	about 675 nm	–	–
